Where two headings read alike, the source gives them in different places.
How the values were obtained:
FAAH = target: T1, FAAH (Rattus norvegicus, UniProt P97612); assay: biochemical; format: biochemical; design: from tissue; host or cells: rat brain (membrane fraction of homogenate; Wistar rats)
T1 sequence (P97612 1-579): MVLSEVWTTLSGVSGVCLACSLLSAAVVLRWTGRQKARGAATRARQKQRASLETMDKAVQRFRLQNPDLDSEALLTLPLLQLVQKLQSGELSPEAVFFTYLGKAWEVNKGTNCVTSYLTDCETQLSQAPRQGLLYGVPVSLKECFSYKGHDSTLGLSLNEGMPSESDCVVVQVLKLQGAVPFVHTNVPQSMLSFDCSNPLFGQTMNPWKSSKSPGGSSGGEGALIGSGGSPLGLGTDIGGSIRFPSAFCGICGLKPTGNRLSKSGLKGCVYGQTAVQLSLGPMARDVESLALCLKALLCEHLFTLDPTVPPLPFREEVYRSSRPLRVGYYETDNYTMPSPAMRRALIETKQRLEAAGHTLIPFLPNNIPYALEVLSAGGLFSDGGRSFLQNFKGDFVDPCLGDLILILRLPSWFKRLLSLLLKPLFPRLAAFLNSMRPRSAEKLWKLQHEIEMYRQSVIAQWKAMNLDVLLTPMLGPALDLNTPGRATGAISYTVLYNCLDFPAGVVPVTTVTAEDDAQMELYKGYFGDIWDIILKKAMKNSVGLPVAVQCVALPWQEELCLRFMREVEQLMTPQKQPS

[1] = target: electric eel acetylcholinesterase (Electrophorus electricus, UniProt O42275); assay: biochemical
[2] = Table 5, rat brain membranes, [3H]anandamide, read-out: IC50 (nM) ± S.E.M.
[3] = Table 6, meta-substituted derivatives, read-out: pIC50 obsd (converted)
[4] = Table 3, read-out: Amidohydrolase IC50
[5] = Table 4, FAAH IC50, read-out: Inhibition of Amidohydrolase IC50
[6] = read-out: Inhibition of Amidohydrolase IC50

Sequence of electric eel acetylcholinesterase (O42275 whole entry): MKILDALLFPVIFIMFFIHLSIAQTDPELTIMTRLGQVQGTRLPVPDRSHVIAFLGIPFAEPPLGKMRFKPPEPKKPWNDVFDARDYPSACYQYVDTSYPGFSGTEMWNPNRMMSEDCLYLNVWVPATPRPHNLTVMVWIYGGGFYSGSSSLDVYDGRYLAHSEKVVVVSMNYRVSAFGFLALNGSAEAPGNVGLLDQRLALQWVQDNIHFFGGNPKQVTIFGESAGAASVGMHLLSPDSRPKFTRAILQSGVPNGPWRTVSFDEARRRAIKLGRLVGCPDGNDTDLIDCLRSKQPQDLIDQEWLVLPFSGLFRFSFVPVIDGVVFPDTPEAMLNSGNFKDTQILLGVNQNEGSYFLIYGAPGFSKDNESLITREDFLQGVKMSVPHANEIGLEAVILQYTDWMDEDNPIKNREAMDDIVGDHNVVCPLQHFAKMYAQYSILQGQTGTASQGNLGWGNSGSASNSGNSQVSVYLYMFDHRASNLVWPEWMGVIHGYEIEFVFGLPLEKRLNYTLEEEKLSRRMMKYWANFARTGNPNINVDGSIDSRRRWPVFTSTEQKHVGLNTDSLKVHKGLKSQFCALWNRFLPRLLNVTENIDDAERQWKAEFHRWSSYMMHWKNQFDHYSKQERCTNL

NS(=O)(=O)c1cccc(-c2cccc(OC(=O)NC3CCCCC3)c2)c1 [Compound 3r]
IC50 (FAAH; [2]): 26.5 ± 4.5 nM
IC50 (FAAH; [3]): 26.3 nM

Cc1ccc(OC(=O)NC2CCCCC2)cc1 [PL#6, p-toly-N-cyclohexy carbamate]
IC50 (FAAH; [4]): 5400 nM
IC50 (FAAH; [5]): 5400 nM
IC50 [1]: > 30000 nM

O=C(NC1CCCCC1)Oc1cccc(-c2cccc(C(F)(F)F)c2)c1 [PL#44]
IC50 (FAAH; Inhibition of Amidohydrolase IC50(μM)): 130 nM

O=C(NC1CCCCC1)Oc1cccc(-c2cccc(-c3ccccc3)c2)c1 [#34]
IC50 (FAAH; [5]): 560 nM

O=C(NC1CCCCC1)Oc1ccc([N+](=O)[O-])c(-c2ccccc2)c1 [PL#58]
IC50 (FAAH; [5]): > 30000 nM

O=C(NC1CCCCC1)Oc1cccc(-c2ccc(C(F)(F)F)cc2)c1 [Compound 3a]
IC50 (FAAH; IC50 (nM) ± S.E.M.): 1590 nM

O=C(NC1CCCCC1)Oc1ccc(-c2ccccc2)cc1 [PL#5, 4-biphenyl N-cyclohexylcarbamate]
IC50 (FAAH; read-out: Amidohydrolase IC50): 2300 nM
IC50 (FAAH; [6]): 2300 nM
IC50 [1]: > 30000 nM

O=C(NC1CCCCC1)Oc1ccc2cccc(Br)c2c1 [PL#27]
IC50 (FAAH; [5]): 170 nM

O=C(NC(=O)c1ccc(-c2cccc(OC(=O)NC3CCCCC3)c2)cc1)NC1CCCCC1 [Compound 3f]
IC50 (FAAH; IC50 (nM) ± S.E.M.): 3020 nM

NC(=O)c1ccc(-c2cccc(OC(=O)NC3CCCCC3)c2)cc1 [PL#40]
IC50 (FAAH; [5]): > 10000 nM

O=C(NC1CCCCC1)Oc1cccc(-c2cccc(C(F)(F)F)c2)c1 [Compound 3g]
IC50 (FAAH; IC50 (nM) ± S.E.M.): 146 ± 16 nM
IC50 (FAAH; pIC50 obsd): 145 nM

Nc1ccc(-c2cccc(OC(=O)NC3CCCCC3)c2)cc1 [Compound 3d]
IC50 (FAAH; IC50 (nM) ± S.E.M.): 360 ± 59 nM

O=C(NC1CCCCC1)Oc1cccc(-c2cccc(CCO)c2)c1 [Compound 3w]
IC50 (FAAH; [2]): 18.7 ± 4.5 nM
IC50 (FAAH; [3]): 18.6 nM

CC(C)(C)NC(=O)Oc1ccc(-c2ccccc2)cc1Cl [PL#10, 3-chloro-4-biphenylyl N-tert-butylcarbamate]
IC50 (FAAH; [4]): > 30000 nM
IC50 (FAAH; [5]): > 30000 nM
IC50 [1]: > 30000 nM

CCNC(=O)OCC12CC3CC(CC(C3)C1)C2 [#31]
IC50 (FAAH; [5]): > 30000 nM

O=C(NC1CCCCC1)Oc1cc(-c2ccccc2)ccc1[N+](=O)[O-] [PL#60]
IC50 (FAAH; [5]): > 30000 nM

O=C(NC1CCCCC1)Oc1cccc(-c2ccc(F)cc2)c1 [Compound 3e]
IC50 (FAAH; [2]): 65 ± 14 nM
inhibition of FAAH activity (in words) (FAAH; rat brain membranes): comparable IC50 value

O=C(NC1CCCCC1)Oc1cccc(-c2ccccc2)c1 [URB524, cyclohexylcarbamic acid biphenyl-3-yl ester]
IC50 (FAAH; Table 1, rat brain membranes, mean of at least three experiments, read-out: IC50): 63 nM
IC50 (FAAH; [5]): 60 nM
IC50 (FAAH; [2]): 63 ± 9 nM
pIC50 obsd (FAAH; Table 6, meta-substituted derivatives): 7.20
IC50 (FAAH; rat brain membranes, read-out: IC50): 63 ± 9 nM

Cc1cccc(-c2cccc(OC(=O)NC3CCCCC3)c2)c1 [PL#43]
IC50 (FAAH; [5]): 100 nM

O=C(NC1CCCCC1)Oc1cccc(-c2ccc(F)cc2)c1 [PL#41]
IC50 (FAAH; [5]): 90 nM

CCCCOC(=O)Oc1ccc(C(=O)Oc2ccc(OC)cc2)cc1 [PL#17, O-butyl 4-(4-methoxyphenoxycarbonyl)-phenyl carbonate]
IC50 (FAAH; [4]): 9100 nM
IC50 (FAAH; [5]): 9100 nM
IC50 [1]: > 30000 nM

O=C(NC1CCCCC1)Oc1cccc(-c2cccc(CO)c2)c1 [Compound 3v]
IC50 (FAAH; [2]): 8.67 ± 0.9 nM
IC50 (FAAH; [3]): 8.71 nM

O=C(Nc1ccc2ccccc2c1)N1CCCCC1 [PL#22]
IC50 (FAAH; [5]): > 30000 nM

CCCCCc1cccc(OC(=O)NC2CCCCC2)c1 [#33]
IC50 (FAAH; [5]): 220 nM

O=C(Nc1cccc2ccccc12)NC1CCCCC1 [PL#20]
IC50 (FAAH; [5]): > 30000 nM

CCCCNC(=O)Oc1ccc2cc(Br)ccc2c1 [PL#3, 6-bromo-2-naphtyhyl N-butylcarbamate]
IC50 (FAAH; [4]): 760 nM
IC50 (FAAH; [5]): 760 nM
IC50 [1]: > 30000 nM

O=C(NC1CCCCC1)Oc1cccc(-c2cccc(Cc3ccccc3)c2)c1 [Compound 3o]
IC50 (FAAH; [2]): 1860 nM
IC50 (FAAH; [3]): 1860 nM

O=C(NC1CCCCC1)Oc1ccc2ccn(-c3ccccc3)c2c1 [#36]
IC50 (FAAH; [5]): 1400 nM

Cc1cccc(-c2cccc(OC(=O)NC3CCCCC3)c2)c1 [Compound 3h]
IC50 (FAAH; [2]): 61.7 ± 19 nM
IC50 (FAAH; [3]): 61.7 nM
inhibition of FAAH activity (in words) (FAAH; rat brain membranes): as potent as the parent compound

NCc1cccc(-c2cccc(OC(=O)NC3CCCCC3)c2)c1 [Compound 3z]
IC50 (FAAH; IC50 (nM) ± S.E.M.): 21200 nM

O=C(Nc1ccc(Cl)cc1)NC1CCCCC1 [PL#21]
IC50 (FAAH; [5]): > 30000 nM

Nc1cccc(-c2cccc(OC(=O)NC3CCCCC3)c2)c1 [Compound 3j]
inhibition of FAAH activity (in words) (FAAH): as potent as the parent compound
IC50 (FAAH; IC50 (nM) ± S.E.M.): 64.6 ± 9 nM
IC50 (FAAH; pIC50 obsd): 64.6 nM

O=C(NC1CCCCC1)Oc1cccc(-c2cccc(Oc3ccccc3)c2)c1 [Compound 3m]
IC50 (FAAH; [2]): 420 ± 86 nM
IC50 (FAAH; [3]): 417 nM

O=C(NC1CCCCC1)Oc1ccc(/C=C/c2ccccc2)cc1 [PL#24]
IC50 (FAAH; [6]): 3300 nM

Cc1cccc(NC(=O)OC2CCCCC2)c1 [PL#57]
IC50 (FAAH; [5]): 800 nM

Reference: patent US20040127518A1, “Modulation of anxiety through blockade of anandamide hydrolysis” (priority 2002, published 2004)
